PubChem BioAssay AID1508591

conditions: rat; liver microsomes; pH 7.4; 15.0 min; 1.0 µM

| Compound | half-life |
| --- | --- |
| OCc1cccc(-c2cc(-c3cccnc3)c3cncn3c2)c1 | 22 min |
| COc1cccc(CNc2ccc(S(=O)(=O)Nc3nc(C)c(C)s3)cc2)c1O | 12 min |
| NC(=O)N1CCN(c2nc(-c3ccc(Br)cc3)cs2)CC1 | > 30 min |
| O=C(O)c1ccccc1-c1ccc(/C=c2\sc3nc4cc(Br)cnc4n3c2=O)o1 | 22 min |
| COc1cccc(CNc2ccc(S(=O)(=O)Nc3nccs3)cc2)c1 | 15 min |
| Cc1cc(C)nc(NC(=S)N2CCN(c3cccc([N+](=O)[O-])c3)CC2)c1 | 17 min |
| FC(F)(F)c1ccc(CN2CCNc3cc(Nc4ccccc4)ncc3C2)cc1 | 17.3 min |
| CC(C)(C)c1ccc(C(=O)N2CC(=O)Nc3ccc(F)cc3C2c2ccc(F)cc2)cc1 (configuration not stated) | 8.57 min |
| O=C(Nc1nc(-c2ccccn2)cs1)c1cccc(S(=O)(=O)N2CCOCC2)c1 | 8.47 min |
| COc1cc(C2c3cc(O)c(OC)cc3CC3C(=O)OCC32)ccc1O (configuration not stated) | 21.1 min |
| Clc1ccc2ncc(-c3cccc(NC4CCNC4)n3)n2c1 (configuration not stated) | 21.8 min |
| CCCCOc1ccc(C2c3c(oc4ccc(C)cc4c3=O)C(=O)N2CCCN(C)C)cc1OCC (configuration not stated) | 25.9 min |
| O=C(Cc1ccc(Cl)c(Cl)c1)Nc1ccc([S+](=O)([O-])Nc2ccccn2)cc1 | 8.3 min |
| COc1cccc(OC)c1C(=O)Nc1ccccc1C(=O)Nc1cccc(C(F)(F)F)c1 | 3.11 min |
| CN(Cc1ccccc1)C(=O)c1ccc(S(=O)(=O)Nc2ccccc2)cc1 | 1.64 min |
| NC(=O)C1CCN(c2nnc(-c3ccc(Br)cc3)s2)CC1 | 7.89 min |
| Cc1ccc(S(=O)(=O)Nc2cc(Br)ccc2C(=O)Nc2nc(-c3ccccc3)cs2)cc1 | 9.6 min |
| NC(=O)N1CCCC(C(=O)N2CCCN(c3ccc(F)cc3)CC2)C1 (configuration not stated) | > 30 min |
| Cc1nn(CCc2nc(-c3ccccc3)cs2)c2[nH]c(=O)cc(C(F)(F)F)c12 | 10.3 min |
| COC(=O)CNC(=O)c1nc(-c2ccc(Cl)cc2Cl)c2cnccn12 | 3.71 min |
| O=S(=O)(Nc1nccs1)c1ccc(NCc2cccc(F)c2O)cc1 | 16 min |
| O=C1Nc2ccccc2/C1=C\c1ccc(O)cc1 | 14 min |
| O=C(Nc1nc2cc(C(F)(F)F)cc(NC3CC3)n2n1)c1cccnc1 | > 30 min |

| Compound | half-life |
| --- | --- |
| CCOc1ccc(CCNC(=O)c2ccnn2Cc2ccccn2)cc1OCC | 5.6 min |
| O=C(Cc1c[nH]c2ncc(-c3ccc(Cl)cc3)cc12)NCc1cccnc1 | 1.66 min |
| COc1cccc(CNc2ccc(S(=O)(=O)Nc3cccnc3)cc2)c1O | 15 min |
| O=[N+]([O-])c1ccc(-c2nc(Nc3ccc(F)c(F)c3)c3ccccc3n2)cc1 | > 30 min |
| COc1ccc(C(=O)Nc2nc(-c3ccccc3)cs2)c(NS(=O)(=O)c2ccc(C)cc2)c1 | 6.5 min |
| Cc1ccc(-c2csc(NC(=O)c3ccccc3NS(=O)(=O)c3ccc(C)cc3)n2)cc1 | 2.6 min |
| CCOC(=O)C1=C(CN(CC)Cc2ccccc2)NC(=O)NC1c1ccc(OC(C)C)cc1 (configuration not stated) | 1.2 min |
| Nc1cc(-c2nc(Nc3ccc(F)c(F)c3)c3ccccc3n2)ccn1 | 15 min |
| CC1(C)CNc2cc(NC(=O)c3cccnc3NCc3ccncc3)ccc21 | 15.2 min |
| COc1cccc(CNCc2cccn2-c2nnc(N3CCN(c4ccccc4)CC3)s2)c1 | 2.06 min |
| CN(c1ncccc1CNc1nc(Nc2ccc3c(c2)CC(=O)N3)ncc1C(F)(F)F)S(C)(=O)=O | > 30 min |
| N[C@@H](Cc1cc(Br)c(O)c(Br)c1)C(=O)O | > 30 min |
| CC1=C(C(=O)Nc2nncs2)C(c2[nH]ncc2Cl)N=C(Nc2nc3ccccc3o2)N1 (configuration not stated) | > 30 min |
| Cc1ccccc1N(C)C1CN([S+](=O)([O-])c2cccc(C(F)(F)F)c2)C1 | 1.98 min |
| NC(=O)C1CCN(c2nc(-c3cccc([N+](=O)[O-])c3)cs2)CC1 | 2.3 min |
| O=C(c1cccs1)c1nonc1C(=O)c1cccs1 | 1.49 min |
| C=CCc1cccc(CNc2ccc(S(=O)(=O)Nc3nccs3)cc2)c1O | 19 min |
| Fc1cnc(-c2ccccc2C(F)F)nc1NCc1ccc(-c2cccnc2)cc1 | 7.1 min |
| CCCN1CNc2c(c(=O)[nH]c(=S)n2CCc2ccc(OC)c(OC)c2)C1 | 18 min |
| CC(C)CC(C)NC(=O)c1noc(-c2ccc[nH]c2=O)n1 (configuration not stated) | > 30 min |
| O=C(Cc1ccc(Cl)c(Cl)c1)Nc1ccc(S(=O)(=O)Nc2nncs2)cc1 | > 30 min |
| CC(C)c1ccccc1-c1nc(NCc2ccc(-c3cccnc3)cc2)c2ccccc2n1 | 9.21 min |
| Cn1cc(Nc2cnccc2C(=O)O)c2cccnc21 | > 30 min |

| Compound | half-life |
| --- | --- |
| Cc1c(C(=O)OCCOc2ccccc2)[nH]c2c1C(=O)CC(c1ccccc1)C2 (configuration not stated) | 5.25 min |
| Cc1ccc(CN2CCOC[C@H]2c2ncc(-c3cccc(F)c3)[nH]2)cc1 | 2.16 min |
| COC1C(OC(=O)c2ccc(C)[nH]2)C(O)C(Oc2ccc3c(O)c(NC(=O)c4ccc(O)c(CC=C(C)C)c4)c(=O)oc3c2Cl)OC1(C)C (configuration not stated) | 28.3 min |
| CN(C)c1cccc(-c2cnc(Nc3cccnc3)c3c2CCO3)c1 | 5.25 min |
| COc1cc(-c2nc(Nc3ccc(F)c(F)c3)c3ccccc3n2)c(F)cn1 | > 30 min |
| [2H]C([2H])(Nc1nc(-c2ccccc2C([2H])(C([2H])([2H])[2H])C([2H])([2H])[2H])ncc1C)c1ccc(-n2ccnn2)cc1 | 13 min |
| CC(C)N(CCCNC(=O)Nc1ccc(C(C)(C)C)cc1)C[C@H]1O[C@@H](n2ccc3c(N)ncnc32)[C@H](O)[C@@H]1O | 2.42 min |
| COc1c(Cl)cc2c([nH]c3cnccc32)c1NC(=O)c1cccnc1C | > 30 min |
| O=[S+]([O-])(Nc1nccs1)c1ccc(NCc2cccc(Cl)c2)cc1 | 15 min |
| Cc1ccccc1NC(=O)Nc1cccs1 | > 30 min |
| CN(C)c1ccc(CN2CCNc3cc(Nc4ccccc4)ncc3C2)cc1 | 2.01 min |
| COc1cc(-c2cc3c(nc2-c2ccccc2)nc(C(=O)NC2CCN(C)CC2)n3C)ccn1 | > 30 min |
| CC1=C(C(=O)Nc2nnc(-c3ccccc3)s2)C(c2nn(C)cc2Cl)N=C(Nc2nc3ccccc3o2)N1 (configuration not stated) | 11 min |
| O=C(CCCN1CCC(O)(c2cccc(C(F)(F)F)c2)CC1)c1ccc(F)cc1 | 20.5 min |
| CCc1ccc2oc(=O)cc(CN3CCN(c4ccccc4F)CC3)c2c1 | 3 min |
| Nc1ccc(-c2cccc3c(=O)cc(N4CCOCC4)oc23)cc1 | > 30 min |
| O=C(Nc1nc(-c2ccc(F)cc2)cs1)c1ccncc1NS(=O)(=O)c1ccc(F)cc1 | > 30 min |
| COc1ccc(-c2cc(C)nc3c(-c4ccc(OC)c(OC)c4)c(C)nn23)cc1 | > 30 min |
| COc1cc2c(cc1OCCCN1CCCC1)N=C(N)C21CCC1 | > 30 min |
| Cc1nc2ccc(C(=O)N3CCC4(CC3)CC(=O)c3c(cnn3C(C)C)C4)cc2[nH]1 | > 30 min |
| CC1=NN(c2ccc(C(=O)O)cc2)C(=O)/C1=C/c1ccc(-c2cc(C)c(C)cc2[N+](=O)[O-])o1 | 22.2 min |
| Cc1ccc(S(=O)(=O)Nc2cnccc2C(=O)Nc2nc(-c3ccc(-c4ccccc4)cc3)cs2)cc1 | > 30 min |

The next lines start with the values.

| half-life | Compound |
| --- | --- |
| 6.4 min | O=C(Nc1ccc(Cl)c(S(=O)(=O)N2CCOCC2)c1)c1ccc(S(=O)(=O)N2CCOCC2)cc1 |
| 22 min | Cc1cc(NC(=O)c2ccc(NC(=O)Cc3ccc(Cl)c(Cl)c3)cc2)no1 |
| 4.5 min | O=C1Nc2ccccc2/C1=C/c1ccnc2ccccc12 |
| > 30 min | O=c1c(-c2ccc(O)cc2)coc2cc(O)ccc12 |
| 5.53 min | NC(=O)C1CCN(c2nc(-c3ccc([N+](=O)[O-])cc3)cs2)CC1 |
| > 30 min | O=C1Nc2ccccc2/C1=C\c1ccc(C(=O)O)cc1 |
| 7.82 min | Cn1c(C(=O)NCCc2ccccn2)nc2nc(-c3ccccc3)c(Cl)cc21 |
| 2.8 min | CCOc1cc(-c2nccc3cc(OC)c(OC)cc23)cc(OCC)c1OCC |
| 1.8 min | COc1ccc(NC(=O)c2c(C)cccc2C)cc1[S+](=O)([O-])N1CCCCCC1 |
| 1.84 min | Cc1cc(C)cc(NS(=O)(=O)c2ccc3[nH]cc(C(=O)NCc4ccco4)c(=O)c3c2)c1 |
| 2.5 min | CCOc1ccc(C(C)CNC(=O)c2cc3sccc3n2Cc2ccccc2)cc1OCC (configuration not stated) |
| 1.8 min | CCOc1ccc(CCNC(=O)c2cc3sccc3n2Cc2cccc(C)c2)cc1OCC |
| 2.17 min | COc1ccc(-c2nc3ccccc3c(=O)n2Cc2ccco2)cc1COc1ccc(NC(C)=O)cc1 |
| 4.3 min | CCOc1ccc(CCNC(=O)c2cc3sccc3n2Cc2ccc(-n3cncn3)cc2)cc1OCC |
| 4.99 min | Oc1ccc(CNc2ccccc2C(F)(F)F)c2cccnc12 |
| > 30 min | COc1ccc(-n2nc(C3CCCN(C(=O)C4CC4)C3)[nH]c2=O)cc1 (configuration not stated) |
| 13.6 min | Cc1cn2nc(-c3nc(C4CCCN(C(=O)c5ccccc5)C4)no3)cc2c(=O)[nH]1 (configuration not stated) |

| half-life | Compound |
| --- | --- |
| 1.3 min | COC(=O)C1=C(C)NC(C)=C(C(=O)O[C@@H]2CCCN(Cc3ccccc3)C2)[C@@H]1c1cccc([N+](=O)[O-])c1 |
| > 30 min | CN1C(=O)c2ccccc2[S@](=O)c2ccc(C(=O)NCCN3CCCC3)cc21 |
| > 30 min | COc1cc([C@@H]2c3cc4c(cc3[C@H](O)[C@H]3COC(=O)[C@H]23)OCO4)cc(OC)c1OC |
| 13 min | Fc1cc(Nc2nc(-c3ccncc3)nc3ccccc23)ccc1-n1cncn1 |
| 7.7 min | CCN1C(=O)c2ccccc2[S@](=O)c2ccc(C(=O)N[C@H](C)c3ccc(Br)cc3)cc21 |
| 19.9 min | CCOc1ccc(-c2nc(SCC(=O)Nc3ccc(C)c(C)c3)n3[nH]c(=O)cc3n2)cc1 |
| 23 min | Cc1ccc(S(=O)(=O)Nc2ccc(C(=O)Nc3nc(-c4ccccc4)cs3)c(Cl)c2)cc1 |
| 5.86 min | COc1ccc(C)cc1NC(=O)c1cnc(-c2ccc(F)cc2)nc1-c1ccncc1 |
| 3.76 min | CCCCN(CC)CCNC(=O)c1cc2c(-c3ccc(Cl)cc3)nn(C)c2s1 |
| 21 min | COc1ccc(NC(=O)c2cccnc2)cc1S(=O)(=O)Nc1ccc(Br)cc1 |
| > 30 min | C1CCc2nc3c(nc2C1)CCCC3 |
| 17 min | CNc1oc(-c2cccc3ccccc23)nc1C(=O)Nc1cccc(C#N)c1 |
| 16.8 min | CN(C)c1cccc(-c2cnc(N3CCC(C(N)=O)CC3)nc2)c1 |
| 4.38 min | CCCCc1ccc(NC(=O)c2ccc3c(c2)N(S(C)(=O)=O)CC3)cc1 |
| 1.9 min | Cc1cc(-c2nnc3n2CCCCC3)c(C)n1-c1cccc(C(F)(F)F)c1 |
| 9.7 min | Cc1ccccc1C(=O)N1CCc2cc(-c3cccc(NC(=O)Cc4ccc5c(c4)OCO5)c3)ccc21 |
| 2.24 min | COc1ccccc1-c1nnc2sc(-c3ccc(N(C)C)cc3)nn12 |
